Several values for one entry are separate records, joined by “and”; a condition that tells them apart may be missing. Equal values may be shown once.
How the values were obtained:
[1] = tested on: dopaminergic neurons; assay: Inhibitory action on neurodegeneration: MPTP HCl-treated mice, specific [3H]-mazindol binding in the striatum; format: in vivo, C57BL/6NCrj mice; conditions: for amount of specifically bound [3H]-mazindol in the striatum: striatum removed after 1 week, mean ± standard error
Description: The experiment was conducted according to the method of Sundstrom et al. (Brain. Res. Bulletin, 21, 257–263 (1988)).
In the experiment, 9- to 10-week-old male C57BL/6NCrj mice (supplied by Nippon Charles River) were used. During the period of preliminary breeding, the animals were kept in a laboratory at room temperature (22 to 24° C.) under 50 to 60% humidity and allowed food and water ad libitum.
1-Methyl-4-phenyl-1,2,3,6-tetrahydropyridine hydrochloride (abbreviated hereinafter as MPTP HCl (RBI Co., Ltd.)) was dissolved at a concentration of 4 mg/ml in physiological saline. A test compound was suspended at a concentration of 1 mg/ml in 0.3% […]. Each test group consisted of 9 to 10 animals, and a control group was intraperitoneally given physiological saline, and an MPTP HCl administration group and an MPTP HCl+test compound administration group were intraperitoneally given MPTP HCl (40 mg/kg).
After 1 hour, the control group and the MPTP HCl administration group were orally given 0.3% Tween, and the MPTP HCl+test compound administration group was orally given the test compound (10 mg/kg). After 1 week, the animals were decapitated, and the striatum was removed therefrom under cooling on ice. The striatum was stored in a deep freezer (<−80° C.) before a binding experiment.
A [^3H]-mazindol binding test was conducted in the following method. A striatum and 300 μl of buffer (120 mM NaCl, 5 mM KCl, 50 mM Tris, pH 7.9) were put into a micro-centrifuge tube and homogenized by portable homogenizer S-203 (manufactured by Ikeda Rika) and centrifuged at 15,000 rpm, 4° C. for 5 minutes (by KUBOTA 1710). The precipitates were suspended in 300 μl of buffer and then centrifuged again at 15,000 rpm, 4° C. for 5 minutes. The precipitates were suspended in 500 μl of buffer and then distributed into four test tubes in 100 μl portions. The remaining suspension (100 μl) was used for protein quantification. To determine non-specific binding, nomifensine maleate (RBI Co., Ltd.) (final concentration: 10 μM) as an inhibitor of dopamine uptake was added to two test tubes among the four test tubes. The binding reaction was initiated by adding 25 μl of [^3H]-mazindol (final concentration: 10 nM) (Spec. Act. 888 GBq/mmol, a product of NET). The mixture was incubated for 1 hour under cooling on ice, and the striatum homogenate was adsorbed onto a glass filter (Whatman, GF/B) in a cell harvester and washed three times with 5 ml of buffer. The radioactivity on the glass filter was measured with a liquid scintillation counter. For each striatum, specific [^3H]-mazindol binding was determined by subtracting the average of non-specific [^3H]-mazindol binding from the average of total [^3H]-mazindol binding.
Protein quantification was conducted by use of a Bio-Rad DC protein assay kit (Bio-Rad Co., Ltd.) with bovine serum albumin (Sigma Co., Ltd.) as a standard. Specific [^3H]-mazindol binding was expressed as the amount of bound [^3H]-mazindol per unit weight of protein, and the mean±standard error was determined for each group (10 animals).
In Table 2, the results are expressed in terms of the amount of specifically bound [^3H]-mazindol (fmol/mg protein) in the striatum.

[2] = tested on: dd-strain male mice; assay: Acute toxicity test (minimum lethal dose); format: in vivo; conditions: oral administration, mortality seven days after the administration
From the text: Test compounds were orally or intraperitoneally administered to groups of dd-strain male mice weighing 20±1 g, each group consisting of three mice.

[3] = MPTP HCl 40 mg/kg i.p., test compound 10 mg/kg orally after 1 hour

Row | SMILES | amount of specifically bound [3H]-mazindol in the striatum [1, 3] [fmol/mg protein] | reduction of the amount of specifically bound [3H]-mazindol by administration of MPTP HCl ([1]; statement in words, 10 mg/kg orally, MPTP HCl mice) | minimum lethal dose (MLD) [2] | amount of specifically bound [3H]-mazindol in the striatum ([1]; MPTP HCl 40 mg/kg i.p. alone (0.3% Tween orally after 1 hour), hydrochloride)
1 | CCn1c(=O)c2c(nc(/C=C/c3ccc(OC)c(OC)c3)n2C)n(CC)c1=O [Compound 1, (E)-1,3-diethyl-8-(3,4-dimethoxystyryl)-7-methylxanthine] | 950.9 ± 54.1 | inhibited | greater than 1000 mg/kg | 
2 | CCCn1c(=O)c2c(nc(/C=C/c3ccc(OC)c(OC)c3)n2C)n(CCC)c1=O [Compound 2, (E)-8-(3,4-dimethoxystyryl)-1,3-dipropyl-7-methylxanthine] | 784.8 ± 41.6 |  |  | 
3 | CCn1c(=O)c2c(nc(/C=C/c3cc(OC)c4c(c3)OCO4)n2C)n(CC)c1=O [Compound 3, (E)-1,3-diethyl-8-(3-methoxy-4,5-methylenedioxystyryl)-7-methylxanthine] | 794.9 ± 28.5 |  |  | 
4 | COc1cc(/C=C/c2nc3c(c(=O)n(C)c(=O)n3C)n2C)cc(OC)c1OC [Compound 4, (E)-8-(3,4,5-trimethoxystyryl)caffeine] | 923.5 ± 51.1 |  |  | 
5 | CN1CC=C(c2ccccc2)CC1.Cl [MPTP HCl, 1-Methyl-4-phenyl-1,2,3,6-tetrahydropyridine hydrochloride, reference compound] |  |  |  | 674.2 ± 38.1 fmol/mg protein and 616.3 ± 32.8 fmol/mg protein and 621.2 ± 27.7 fmol/mg protein
